Laboratory results published in US10669227B2 (THE RESEARCH FOUNDATION OF STATE UNIVERSITY OF NEW YORK, priority 2009, dated 2020).
Entries after “also recorded” stand apart in the source; their conditions may differ.

Tests used:
MMP-13 (Collagenase-3) = MMP-13 (Collagenase-3) (Homo sapiens (Human), UniProt P45452); assay: MMP-13 inhibition in vitro, octapeptide substrate, HPLC; format: biochemical; conditions: read-out: MMP-13 Maximum Inhibition @100 μM
[1] = target: MMP-9 (92 kDa gelatinase) (Rattus norvegicus (Rat), UniProt P50282); assay: Diabetic rat, plasma gelatinase by gelatin zymography (MMP-9); format: in vivo; conditions: diabetic rats, 100 mg/kg oral once/day, 7 days
NFκB activation = NFκB activation in human monocytes in cell culture; format: cell-based; conditions: Monocyte
MCP-1 = assay: Inhibition of MCP-1 production by LPS-stimulated monocytes; format: cell-based, human
Description: (§1) Briefly, human peripheral blood monocytes (HMs) were isolated from a leukocyte concentrate by density gradient centrifugation (Lymphoprep) and the isolated HMs cultured (2 h, 37° C.) to remove non-adherent cells. The adherent HMs wore cultured for 18 h (1×10^6 cells/well, 24-well plates)±endotoxin (LPS)±different compounds dissolved in DMSO (the final concentration of DMSO in the RPMI serum-free culture media with Pen./Strep. antibiotics was no greater than 0.5%). After incubation, the proinflammatory cytokines, TNFα, […], MCP-1 and IL-6 were measured in the conditioned media by ELISA and cytotoxicity was assessed by measuring the absorbance (490 nm) of formazan produced by reduction of MTS. The HMs alone±0.1-0.5% DMSO produced minimal levels of these pro-inflammatory cytokines. However, addition of 100 ng/ml or 10 μg/ml of LPS both dramatically stimulated cytokine production.
(§2) The cytokine levels were measured by Luminex multiplex, a method that allows the simultaneous measurement of different biological markers.

[2] = target: MMP-9 (human leukocyte gelatinase) (Homo sapiens (Human), UniProt P14780); assay: MMP-9 inhibition in vitro, octapeptide substrate, HPLC; format: biochemical; conditions: read-out: Maximum Inhibition At 100 μM compound (MMP-9)
From the text: In contrast all three chemically-modified curcumins at 100 μm final concentration inhibited gelatinase activity by 68-100% (FIG. 6 and Table 6).

MMP-2 [3] = assay: Diabetic rat, MMP-2 in skin by ELISA; format: in vivo; conditions: both low and high doses, 3 weeks
Description: (§3) At the end of the treatment protocol, the rats were sacrificed, blood samples were collected, and whole skin (except over limbs) and qingiva were dissected (the skin, because of ample quantities of tissue were analyzed for each rat separately; the gingiva, because of the tiny amounts that could be harvested per rat, were pooled for each experimental group, as prescribed previously for tetracycline studies (30). In addition, the jaw bones were collected, defleshed, and bone loss around the teeth analyzed morphometrically as described previously (42, 43).

human monocytes = assay: Cytotoxicity in human monocytes (MTS); format: cell-based
Description: as §1, with “The adherent HMs wore cultured for 18 h (1×10^6 cells/well, 24-well plates)±endotoxin (LPS)±different compounds dissolved in DMSO (the final concentration of DMSO in the RPMI serum-free culture media with Pen./Strep. antibiotics was no greater than 0.5%).” left out

alveolar bone loss = assay: Diabetic rat, alveolar bone loss, morphometric; format: in vivo; conditions: 500 mg/kg oral, 3 weeks
Description: as §3
Alveolar bone loss (the signature pathologic event in inflammatory periodontal disease) was assessed in the defleshed jaws of the compound 1-treated (TX) and untreated rats.

[4] = target: MMP-2 (72 kDa gelatinase) (Rattus norvegicus (Rat), UniProt P33436); assay: Diabetic rat, plasma gelatinase by gelatin zymography (MMP-2); format: in vivo; conditions: diabetic rats, 100 mg/kg oral once/day, 7 days
collagenase-2 (MMP-8) = collagenase-2 (MMP-8) (Rattus norvegicus (Rat), UniProt O88766); assay: Diabetic rat, MMP-8 in skin extracts by Western blot; format: in vivo; conditions: diabetic rats, 100 mg/kg oral once/day, 7 days
Description: The latter assays were carried out using Western blot analysis with monoclonal antibodies to MMP-8.

TNF-α = assay: Inhibition of TNF-α production by LPS-stimulated monocytes; format: cell-based, human
Description: as §1, §2

VEGF = VEGF level in LPS-challenged human monocytes, Luminex multiplex; format: cell-based; conditions: 2 μM, FIG. 2
Description: as §2

[5] = test system: p38 MAP kinase activation; assay: p38 MAP kinase activation, preliminary studies; format: cell-based
MMP-2 [6] = assay: Diabetic rat, gingiva gelatinase by gelatin zymography (MMP-2); format: in vivo; conditions: diabetic rats, oral daily, 3 weeks
Description: as §3
(§4) This appearance of MMP-9 only in the gingiva (FIG. 10), but not the skin (FIG. 12), of the diabetic rats is likely the result of the oral bacteria inducing inflammation in the gingiva of these immune-suppressed UD rats, whereas the skin is not exposed to this onslaught of bacteria particularly the anaerobic gram-negative bacteria in the mouth that cause periodontal and gingival inflammation.

MMP-9 = MMP-9 (Rattus norvegicus (Rat), UniProt P50282); assay: Diabetic rat, gingiva gelatinase by gelatin zymography (MMP-9); format: in vivo; conditions: diabetic rats, 100 and 500 mg/kg oral daily, 3 weeks
Description: as §3, §4

[7] = Solubility in aqueous solutions; format: physicochemical; conditions: comparative
IL-6 = assay: Inhibition of IL-6 production by LPS-stimulated monocytes; format: cell-based; conditions: Homo sapiens, Monocyte, 18 h, read-out: % Inhibition of IL-6 produced by stimulated Monocytes with LPS @ 18 h
Description: as §1

[8] = test system: neonatal rat ventricular myocytes; assay: Hydrogen peroxide induced LDH release; format: cell-based; conditions: 10 μM, H2O2 100 μM, 24 h
Description: Neonatal rat ventricular myocytes, serum starved for 24 h, were treated with the inhibitors 1 h prior to the addition of 100 μM of hydrogen peroxide (Sigma). LDH release in the conditioned media was quantified using CytoTox-ONE Homogeneous Membrane Integrity Assay reagent (Promega) at the indicated time points.

IL-1β = IL-1β (Rattus norvegicus (Rat), UniProt Q63264); assay: Diabetic rat, IL-1β in gingiva extracts by ELISA; format: in vivo; conditions: 3 weeks
Description: as §3

Chain of MMP-9 (human leukocyte gelatinase) (P14780 94-707): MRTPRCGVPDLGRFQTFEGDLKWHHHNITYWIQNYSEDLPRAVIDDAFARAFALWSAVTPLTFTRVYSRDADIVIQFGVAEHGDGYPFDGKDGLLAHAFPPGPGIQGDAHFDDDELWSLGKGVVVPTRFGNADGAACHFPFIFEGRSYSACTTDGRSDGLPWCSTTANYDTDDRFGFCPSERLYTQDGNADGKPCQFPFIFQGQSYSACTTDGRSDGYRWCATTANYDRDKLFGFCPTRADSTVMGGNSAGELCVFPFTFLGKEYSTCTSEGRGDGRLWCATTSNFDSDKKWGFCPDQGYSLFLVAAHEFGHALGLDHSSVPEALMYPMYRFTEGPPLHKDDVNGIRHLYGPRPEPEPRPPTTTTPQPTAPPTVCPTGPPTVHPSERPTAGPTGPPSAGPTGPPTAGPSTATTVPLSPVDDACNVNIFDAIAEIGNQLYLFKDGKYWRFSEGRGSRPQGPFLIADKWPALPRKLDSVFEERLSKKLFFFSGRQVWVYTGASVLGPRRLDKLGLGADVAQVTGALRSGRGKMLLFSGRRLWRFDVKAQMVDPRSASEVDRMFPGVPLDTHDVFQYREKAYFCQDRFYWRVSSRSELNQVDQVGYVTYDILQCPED

COC(=O)C(C(=O)/C=C/c1ccc(O)c(OC)c1)C(=O)/C=C/c1ccc(O)c(OC)c1 [Compound 1, 1,7-Bis(4-hydroxy-3-methoxyphenyl)-4-methoxycarbonylhepta-1E,6E-dien-3,5-dione]
inhibition at 100 µM (MMP-13 (Collagenase-3)): 69%
Plasma MMP-9 level [1]: reduced the excessive levels of MMPs to essentially normal levels
inhibition at 2 µM (NFκB activation; CRP/oxid-LDL Complex): 91%
inhibition at 10 µM (NFκB activation; CRP/oxid-LDL Complex): 100%
inhibition at 2 µM (NFκB activation; Endotoxin (LPS)): 24%
inhibition at 10 µM (NFκB activation; Endotoxin (LPS)): 85%
MCP-1 level in LPS-challenged human monocytes, Luminex multiplex (MCP-1; 2 μM, FIG. 2): potent in reducing
inhibition at 2 µM (MCP-1; Homo sapiens, Monocyte, 18 h, 2 uM, read-out: % Inhibition of MCP-1 produced by stimulated Monocytes with LPS @ 18 h): 74%
inhibition at 25 µM (MCP-1; Homo sapiens, Monocyte, 18 h, 25 uM, read-out: % Inhibition of MCP-1 produced by stimulated Monocytes with LPS @ 18 h): 78%
inhibition at 50 µM (MCP-1; Homo sapiens, Monocyte, 18 h, 50 uM, read-out: % Inhibition of MCP-1 produced by stimulated Monocytes with LPS @ 18 h): 79%
inhibition at 100 µM [2]: 72%
Reduction of elevated MMP-2 level in skin (MMP-2 [3]): 28%
Cytotoxicity Monocytes @ 5 h incubation (human monocytes; 2 uM): 2 uM - 0%
Cytotoxicity Monocytes @ 5 h incubation (human monocytes; 10 uM): 10 uM - 0%
Cytotoxicity Monocytes @ 5 h incubation (human monocytes; 25 uM): 25 uM - 33%
Cytotoxicity Monocytes @ 18 h incubation (human monocytes; 25 uM): 25 uM - 45.5%
Cytotoxicity Monocytes @ 18 h incubation (human monocytes; 50 uM): 50 uM - 53%
Reduction in alveolar bone loss vs untreated groups (alveolar bone loss): less effective
Plasma MMP-2 level [4]: reduced the excessive levels of MMPs to essentially normal levels
MMP-8 level in skin extracts (collagenase-2 (MMP-8)): A similar pattern was observed
TNFα level in LPS-challenged human monocytes, Luminex multiplex (TNF-α; 2 μM, FIG. 2): potent in reducing
inhibition at 2 µM (TNF-α; Homo sapiens, Monocyte, 18 h, 2 uM, read-out: % Inhibition of TNF-α produced by stimulated Monocytes with LPS @ 18 h): 63%
inhibition at 25 µM (TNF-α; Homo sapiens, Monocyte, 18 h, 25 uM, read-out: % Inhibition of TNF-α produced by stimulated Monocytes with LPS @ 18 h): 100%
inhibition at 50 µM (TNF-α; Homo sapiens, Monocyte, 18 h, 50 uM, read-out: % Inhibition of TNF-α produced by stimulated Monocytes with LPS @ 18 h): 100%
VEGF level in LPS-challenged human monocytes, Luminex multiplex (VEGF): potent in reducing
Effect on p38 MAP kinase activation [5]: little/no effect
Pro- and activated-forms of MMP-2 in gingiva (MMP-2 [6]): neither diabetes nor compound 1 appeared to have a detectable effect
MMP-9 level in gingiva (MMP-9): reduced MMP-9 to the undetectable levels
Solubility [7]: improved solubility; also recorded: more soluble than the insoluble natural product curcumin
inhibition at 2 µM (IL-6; 2 uM): 30%
inhibition at 25 µM (IL-6; 25 uM): 100%
inhibition at 50 µM (IL-6; 50 uM): 100%
LDH release [8]: less dramatic effect
Reduction of IL-1β in gingiva vs untreated diabetic (IL-1β; higher oral dose (500 mg/kg)): 95%
Reduction of IL-1β in gingiva vs untreated diabetic (IL-1β; lower dose (100 mg/kg)): about 18%
